In ChEMBL document CHEMBL1135996, “Synthesis and biological evaluation of novel macrocyclic ligands with pendent donor groups as potential yttrium chelators for radioimmunotherapy with improved complex formation kinetics” (J Med Chem, 2002) one finds ID/g data, which are given here for one substance.

Holding throughout (type): ADME, organism-based
Settings in all cases: in vivo

The species named for data set [1] is Mus musculus. Kind of data set: Percent of radioactivity that accumulated in kidney of mice at 24 h.
The species named for data set [2] is Mus musculus. Briefly: Percent of blood clearance in bone of mice at 0.5 h.
For data set [3], the species on record is Mus musculus. Kind of data set: Percent of blood clearance in bone of mice at 24 hr.

Turning to “1,4,7,10tetraaza-Cyclododecane-1,4,7,10-tetracarboxylic acid with yttrium”, the ID/g in data set [1] is reported as 0.54%; in data set [2] it was 1.47%; in data set [3], 0.05%.
